Reference: PubChem BioAssay AID1963829 (Molecular Pharmacology Branch, DTP, NCI, 2024)

Tested on: 935938-334-R-J1-PDC complex spheroid viability
Experiment: Anticancer human tumor 935938-334-R-J1-PDC patient-derived small intestine adenocarcinoma cell line growth inhibition [POLQ]
Settings: for IC50: curve of first compound; for viability, T/C: stronger effect = lower value
Method: Multicellular complex tumor spheroid response to Polymerase (POL) inhibitors (novobiocin, ART-558, RP6685) in combination with a variety of drugs and investigational agents in selected tumor cell lines
The POL inhibitors (novobiocin, ART-558, and RP6685) were evaluated both individually and in combination with standard of care and investigational anticancer small molecules within a complex spheroid model of solid tumors. . Complex spheroids include a stromal component modeled by human endothelial cells (HUVEC) and fibroblasts modeled by human mesenchymal stem cells (MSCs). The concentration ranges selected for each drug and investigational agent were based upon clinically achievable concentrations if the clinical Cmax of the agent was known.
Compounds. The drugs and investigational agents: novobiocin (NSC847541), ART-558 (NSC835418), RP-6685 (NSC848927), peposertib (NSC802822), ceralasertib (NSC780249), elimusertib (NSC800525), camonsertib (NSC841442), AZD-1390 (NSC803789), olaparib (NSC753686), talazoparib (NSC767125), rucaparib (NSC756644), sotorasib (NSC818433), MRTX-1133 (NSC836407), SN-38 (NSC673596), topotecan (NSC609699), epotoside (NSC141540), doxorubicin (NSC123127), gemcitabine (NSC613327), 5-fluorouracil (NSC19893), paclitaxel (NSC125973), vemurafenib (NSC761431), MSA-2 (NSC828583), SN-011 (NSC837082), adavosertib (NSC754352), prexasertib (NSC758257), carboplatin (NSC241240) and oxaliplatin (NSC266046), were obtained from the National Cancer Institute (NCI) Developmental Therapeutics Program Chemical Repository (21). The FDA-approved anticancer drug set is available from the Developmental Therapeutics Program at https://dtp.cancer.gov/organization/dscb/obtaining/. […] The stock solutions were prepared in dimethyl sulfoxide (DMSO, Sigma-Aldrich, St. Louis, MO, cat. D2650), except for the platinum compounds which were prepared in saline (Quality Biological, Gaithersburg, MD, cat. 114-055-101), at 800-fold the tested concentration and stored at -70 degrees C prior to their use. All drugs and investigational agents were tested over a range starting from a high concentration at or near the clinical Cmax and decreasing in half-log increments. If the clinical Cmax for an agent had not been determined, the highest concentration tested was 10 microM, except for SN-38, which was tested at a high concentration of 1 microM.
Cell Culture. All cells were maintained in an incubator at 37 degrees C and 5% CO2 with 95% humidity. The PDC lines were cultured according to standard operating procedures established by the NCI PDMR (https://pdmr.cancer.gov). Table 3 of the manuscript, lists the cell lines along with the number of the three cell types plated to form the mct-spheroids and media for tumor cell growth. After thawing, all PDC lines, except 997537-175-T-J1-PDC and 415267-285-R-J2-PDC, were cultured in Matrigel-coated flasks prepared with a working solution of 1X Ham's F-12 nutrient mix, without supplementation (Thermo Fisher Scientific, cat. 11765054), 100 U/mL penicillin-streptomycin (Thermo Fisher Scientific, cat. 15140122), and 2.5% Matrigel (Corning Inc., Corning, NY, cat. 354248) for the first three passages. The two PDC lines 997537-175-T-J1-PDC and 415267-285-R-J2-PDC were cultured on uncoated flasks. The 857933-349-R-J2-PDC line was cultured in 6C/Colon 1B media containing advanced DMEM/F-12 (Thermo Fisher Scientific, cat. 12634028), 10 mM HEPES (Thermo Fisher Scientific, cat. 15630080), 1X GlutaMAX supplement (Thermo Fisher Scientific, cat. 35050061), 0.1 mg/mL primocin (InvivoGen, San Diego, CA, cat. ant-pm-2), 10% defined fetal bovine serum, heat inactivated (HyClone Laboratories Inc., Logan, UT, cat. SH30070.03HI), 50% L-WRN conditioned media (ATCC, cat. CRL-3276), 1.25 mM N-Acetyl-L-cysteine (Sigma-Aldrich, cat. A9165), 10 mM nicotinamide (Sigma-Aldrich, cat. N0636), 1X B-27 supplement (Thermo Fisher Scientific, cat. 17504044), 1X N-2 supplement (Thermo Fisher Scientific, cat. […]

[1] = second compound 0.0316 µM, first compound 0.0316 µM
[2] = second compound 0.0316 µM, first compound 0.1 µM
[3] = second compound 0.0316 µM, first compound 0.316 µM
[4] = second compound 0.0316 µM, first compound 1 µM
[5] = second compound 0.0316 µM, first compound 3.16 µM
[6] = second compound 0.0316 µM, first compound 10 µM
[7] = second compound 0.1 µM, first compound 0.0316 µM
[8] = second compound 0.1 µM, first compound 0.1 µM
[9] = second compound 0.1 µM, first compound 0.316 µM
[10] = second compound 0.1 µM, first compound 1 µM
[11] = second compound 0.1 µM, first compound 3.16 µM
[12] = second compound 0.1 µM, first compound 10 µM
[13] = second compound 0.316 µM, first compound 0.0316 µM
[14] = second compound 0.316 µM, first compound 0.1 µM
[15] = second compound 0.316 µM, first compound 0.316 µM
[16] = second compound 0.316 µM, first compound 1 µM
[17] = second compound 0.316 µM, first compound 3.16 µM
[18] = second compound 0.316 µM, first compound 10 µM
[19] = second compound 1 µM, first compound 0.0316 µM
[20] = second compound 1 µM, first compound 0.1 µM
[21] = second compound 1 µM, first compound 0.316 µM
[22] = second compound 1 µM, first compound 1 µM
[23] = second compound 1 µM, first compound 3.16 µM
[24] = second compound 1 µM, first compound 10 µM
[25] = second compound 3.16 µM, first compound 0.0316 µM
[26] = second compound 3.16 µM, first compound 0.1 µM
[27] = second compound 3.16 µM, first compound 0.316 µM
[28] = second compound 3.16 µM, first compound 1 µM
[29] = second compound 3.16 µM, first compound 3.16 µM
[30] = second compound 3.16 µM, first compound 10 µM
[31] = second compound 10 µM, first compound 0.0316 µM
[32] = second compound 10 µM, first compound 0.1 µM
[33] = second compound 10 µM, first compound 0.316 µM
[34] = second compound 10 µM, first compound 1 µM
[35] = second compound 10 µM, first compound 3.16 µM
[36] = second compound 10 µM, first compound 10 µM
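Note: spheroids exposed to drugs for seven days before viability read.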
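Throughout, for viability, T/C: 100% = DMSO vehicle control wells.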

C=CC(=O)N1CCN(c2nc(=O)n(-c3c(C)ccnc3C(C)C)c3nc(-c4c(O)cccc4F)c(F)cc23)C(C)C1 (centres undefined) + COC1C(OC(N)=O)C(O)C(Oc2ccc3c(O)c(NC(=O)c4ccc(O)c(CC=C(C)C)c4)c(=O)oc3c2C)OC1(C)C
IC50 (second compound 0.0316 µM): > 10 µM
IC50 (second compound 0.1 µM): > 10 µM
IC50 (second compound 0.316 µM): > 10 µM
IC50 (second compound 1 µM): > 10 µM
IC50 (second compound 3.16 µM): > 10 µM
IC50 (second compound 10 µM): > 10 µM
viability, T/C [1]: 107%
viability, T/C [2]: 88.4%
viability, T/C [3]: 107%
viability, T/C [4]: 82.9%
viability, T/C [5]: 131%
viability, T/C [6]: 111%
viability, T/C [7]: 85.3%
viability, T/C [8]: 110%
viability, T/C [9]: 90.8%
viability, T/C [10]: 99.3%
viability, T/C [11]: 104%
viability, T/C [12]: 126%
viability, T/C [13]: 129%
viability, T/C [14]: 87.2%
viability, T/C [15]: 103%
viability, T/C [16]: 80.7%
viability, T/C [17]: 85.5%
viability, T/C [18]: 115%
viability, T/C [19]: 101%
viability, T/C [20]: 86.4%
viability, T/C [21]: 101%
viability, T/C [22]: 107%
viability, T/C [23]: 102%
viability, T/C [24]: 113%
viability, T/C [25]: 117%
viability, T/C [26]: 99.7%
viability, T/C [27]: 93.4%
viability, T/C [28]: 96.9%
viability, T/C [29]: 102%
viability, T/C [30]: 111%
viability, T/C [31]: 102%
viability, T/C [32]: 81.3%
viability, T/C [33]: 106%
viability, T/C [34]: 94.7%
viability, T/C [35]: 103%
viability, T/C [36]: 118%

CC(C)n1c(=O)n(C)c2cnc3cc(F)c(-c4ccc(OCCCN5CCCCC5)nc4)cc3c21 + Cc1cccc(N(C)C(=O)C2C(O)CCN2c2nc(C)cc(C(F)(F)F)c2C#N)c1
IC50 (second compound 0.0316 µM): > 10 µM
IC50 (second compound 0.1 µM): > 10 µM
IC50 (second compound 0.316 µM): > 10 µM
IC50 (second compound 1 µM): > 10 µM
IC50 (second compound 3.16 µM): > 10 µM
IC50 (second compound 10 µM): > 10 µM
viability, T/C [1]: 86.8%
viability, T/C [2]: 98.4%
viability, T/C [3]: 77.5%
viability, T/C [4]: 112%
viability, T/C [5]: 111%
viability, T/C [6]: 125%
viability, T/C [7]: 85.9%
viability, T/C [8]: 84.7%
viability, T/C [9]: 82.8%
viability, T/C [10]: 82%
viability, T/C [11]: 110%
viability, T/C [12]: 88.3%
viability, T/C [13]: 97.5%
viability, T/C [14]: 94.9%
viability, T/C [15]: 100%
viability, T/C [16]: 97%
viability, T/C [17]: 94.2%
viability, T/C [18]: 97.3%
viability, T/C [19]: 88%
viability, T/C [20]: 103%
viability, T/C [21]: 89.1%
viability, T/C [22]: 93.5%
viability, T/C [23]: 105%
viability, T/C [24]: 98.7%
viability, T/C [25]: 93.4%
viability, T/C [26]: 93.7%
viability, T/C [27]: 100%
viability, T/C [28]: 98.1%
viability, T/C [29]: 112%
viability, T/C [30]: 89.5%
viability, T/C [31]: 105%
viability, T/C [32]: 80.6%
viability, T/C [33]: 90.5%
viability, T/C [34]: 84.6%
viability, T/C [35]: 76.9%
viability, T/C [36]: 80.1%
